The subject of one series is T. gondii-ΔHXGPRT. Put plainly: T. gondii-ΔHXGPRT fluorescence growth assay. The class given is cell-based. Conditions: Toxoplasma gondii, read-out: EC50 T. gondii-ΔHXGPRT growth.
A further series has as its system wild-type T. gondii. Put plainly: wild-type T. gondii fluorescence growth assay. It counts as cell-based. Conditions: Toxoplasma gondii.
A further series concerns T. gondii-CpIMPDH. The experiment in a line: T. gondii-CpIMPDH fluorescence growth assay. It counts as cell-based, Toxoplasma gondii.
Another series deals with HCT-8 cells. The experiment in a line: fluorescent HCT-8 host cell growth assay. It counts as cell-based, human. The source says:
The differentiation of selective antiparasitic effects from those that are a secondary consequence of a host cell effect is a critical issue in drug discovery for intracellular parasites. Cytotoxicity assays commonly reflect plasma membrane integrity, and are a crude measure of host cell effects—it is conceivable that more subtle perturbations of host cell metabolism can have an adverse effect on parasite proliferation. Therefore we sought to develop a simple and inexpensive assay of host cell growth. The human ileocecal adenocarcinoma epithelial cell line, HCT-8, which is commonly used to maintain C. parvum infection in tissue culture, was engineered to constitutively express a green fluorescent protein (GFP). Growth of this cell line was monitored daily using a fluorescent plate reader. […] These experiments validate the use of the fluorescent HCT-8 cell growth assay.
HCT-8 cells were transfected with the pmaxGFP plasmid (Amaxa) using Lipofectamine (Invitrogen) following the manufactures instruction. Fluorescent lines were then selected and cloned using FACS. Confluent monolayers of pmaxGFP expressing cells were harvested from T75 flasks and passed through a 40 μm cell strainer. Cells were then seeded at 4000 cells per well in a volume of 200 μL into black, optical quality, thin bottom, 96-well plates (DB Falcon). All test compounds were diluted in DMSO to prepare a 200× working stock for each dilution. Appropriate wells were spiked with 1 μl such that the final concentration of DMSO was 0.5%. The fluorescence was read daily with a SpectraMax M22/M2e (Molecular Devices) plate reader (Ex 485, Em 530) for 6-7 days. The percent inhibition was calculated on a day within the exponential phase of growth.

For series [1], the target named is CpIMPDH, HpIMPDH, BbIMPDH, SpIMPDH, EcIMPDH and TfIMPDH.
Series [2] deals with primary human, mouse, rat, and dog lymphocytes. The conditions noted are these: cited from earlier work.
Where [3] appears, read: read-out: intrinsic Ki (adjusted for competition from the mobile flap), range over IMPDHs.

Structures are written as SMILES. Read-outs that look alike come from different tables or passages of the source.

On to `COc1c(C)c2c(c(O)c1C/C=C(\C)CCC(=O)O)C(=O)OC2` [MPA, mycophenolic acid], for which the EC50 – broadly, the midpoint of the concentration-response curve – with T. gondii-ΔHXGPRT was 0.29 µM; with wild-type T. gondii (media with xanthine (0.33 mM), read-out: EC50 wild-type T. gondii growth, xanthine supplemented) it was not below 78 µM; in the series on wild-type T. gondii (read-out: EC50 wild-type T. gondii growth), 2.6 µM; in the series with T. gondii-CpIMPDH (Toxoplasma gondii, read-out: EC50 T. gondii-CpIMPDH growth) it was more than 65 µM.

On to `C[C@@H](Oc1ccnc2ccccc12)c1cn(-c2ccc(Cl)c(Cl)c2)nn1` [A105], for which, in the series with HCT-8 cells, the “host cell (HCT-8) growth effect, in words” value (shortened to “host cell”) is reported as “do not inhibit host cell growth”. Moreover, the “selectivity for T. gondii-CpIMPDH parasite over wild-type T. gondii” value (“selectivity” for short) in the series on T. gondii-CpIMPDH is listed as “little selectivity”. For `CC(Oc1cccc2ccccc12)c1cn(-c2ccc(Cl)cc2)nn1` (centres unmarked) [Compound 1, 1-(4-chlorophenyl)-4-(1-(naphthalene-1-yloxy)ethyl)-1H-1,2,3-triazole], the melting point (usually the temperature, or range, at which the solid turns liquid) fell in the range of 98 to 100 °C. On the same count and under the same terms, to `C[C@@H](Oc1ccnc2ccccc12)c1cn(-c2ccc(Cl)c(Cl)c2)nn1` [Compound 28, (R)-4-(1-(1-(3,4-dichlorophenyl)-1H-1,2,3-triazol-4-yl)ethoxy)quinoline] belongs 62 to 64 °C. `C[C@H](Oc1ccnc2ccccc12)c1cn(-c2ccc(Cl)c(Cl)c2)nn1` [Compound 30, (S)-4-(1-(1-(3,4-dichlorophenyl)-1H-1,2,3-triazol-4-yl)ethoxy)quinoline] came in with a melting point of 64 to 66 °C. The molecule `C[C@@H](Oc1ccnc2ccccc12)c1cn(-c2ccc(C#N)c(Cl)c2)nn1` displayed a melting point of 176 to 178 °C. As for `NC(=O)c1csc([C@@H]2O[C@H](CO)[C@@H](O)[C@H]2O)n1` [Tiazofurin, tiazofurin], the inhibitory constant (Ki) (in general, the equilibrium dissociation constant of an inhibitor or competing ligand from its target) lay in the range of 1000 to 69000 µM in series [1] (read-out: Ki (observed), range over prokaryotic IMPDHs) and 300 to 700 µM in series [1] (setting [3]). `Clc1ccc(-n2cc(COc3ccnc4ccccc34)nn2)cc1` [Compound 17, 4-((1-(4-chlorophenyl)-1H-1,2,3-triazol-4-yl)methoxy)quinoline] gave a melting point of 230 to 232 °C. `CC(Oc1cccc2c1ccc[n+]2[O-])c1cn(-c2ccc(Cl)cc2)nn1` (centres unmarked) [Compound 25, 5-(1-(1-(4-chlorophenyl)-1H-1,2,3-triazol-4-yl)ethoxy)quinoline 1-oxide] came in with a melting point of 165 to 167 °C.

Take `C[C@H](Oc1ccnc2ccccc12)c1cn(-c2ccc(C#N)c(Cl)c2)nn1`: the melting point lay within 176 to 178 °C. In turn, `CC(Oc1ccnc2ccccc12)c1cn(-c2ccc(C#N)cc2)nn1` (centres unmarked) [Compound 15, 4-(4-(1-(quinolin-4-yloxy)ethyl)-1H-1,2,3-triazol-1-yl)benzonitrile] had a melting point of 176 to 178 °C. `CC(Oc1ccnc2ccccc12)c1cn(-c2ccc(C#N)c(Cl)c2)nn1` (centres unmarked) showed a melting point of 194 to 196 °C. In turn, `CC(C)C(Oc1cccc2ccccc12)C(=O)Nc1ccc(Cl)cc1` (centres unmarked) [Compound 116, N-(4-chlorophenyl)-3-methyl-2-(1-naphthalenyloxy)butanamide] returned a melting point of 150 to 152 °C. As for `C[C@@H](Oc1cc[n+]([O-])c2ccccc12)c1cn(-c2ccc(Cl)cc2)nn1` [A110], the “host cell” value with HCT-8 cells was “negligible effects on host cell growth”. `O=C(Nc1ccc(Cl)cc1)C(Oc1cccc2ccccc12)c1ccccc1` (stereo not drawn) [Compound 102, N-(4-chlorophenyl)-α-(1-naphthalenyloxy)benzeneacetamide] returned a melting point of 176 to 178 °C.

Turning to `CC(Oc1ccc(Cl)c2ccccc12)c1cn(-c2ccc(Cl)cc2)nn1` (centres unmarked) [A82], in the series on HCT-8 cells, the “host cell” value is recorded as “do not inhibit host cell growth”. The “selectivity” value with T. gondii-CpIMPDH was “little selectivity”. `CC(Oc1cccc2ccccc12)C(=O)Nc1ccc(Cl)cc1` (centres unmarked) [Compound 93, N-(4-chlorophenyl)-2-(1-naphthalenyloxy)propanamide] gave a melting point of 146 to 148 °C.

`C[C@@H](Oc1cccc2c1ccc[n+]2[O-])c1cn(-c2ccc(Cl)cc2)nn1` [Compound 32, (R)-5-(1-(1-(4-chlorophenyl)-1H-1,2,3-triazol-4-yl)ethoxy)quinoline 1-oxide] yielded a melting point of 184 to 186 °C. The molecule `CC(Oc1ccnc2ccccc12)c1cn(-c2ccc(Cl)c(Cl)c2)nn1` (centres unmarked) [Compound 14, 4-(1-(1-(3,4-dichlorophenyl)-1H-1,2,3-triazol-4-yl)ethoxy)quinoline] came in with a melting point of 62 to 64 °C. `CC(Oc1cc[n+]([O-])c2ccccc12)c1cn(-c2ccc(Cl)c(Cl)c2)nn1` (centres unmarked) [Compound 26, 4-(1-(1-(3,4-dichlorophenyl)-1H-1,2,3-triazol-4-yl)ethoxy)quinoline 1-oxide] gave a melting point of 216 to 218 °C.

In turn, `CC(Oc1ccnc2ccccc12)c1cn(-c2ccc(Cl)cc2)nn1` (centres unmarked) [Compound 13, 4-(1-(1-(4-chlorophenyl)-1H-1,2,3-triazol-4-yl)ethoxy)quinoline] had a melting point of 128 to 130 °C. For `CC(Oc1ccnc2ccccc12)c1cn(-c2ccc(Cl)c(Cl)c2)nn1` (centres unmarked) [A90], in the series on HCT-8 cells, the “host cell” value was “do not inhibit host cell growth”. Besides, the “selectivity” value with T. gondii-CpIMPDH was “little selectivity”.

Turning to `Nc1ncnc2c1ncn2[C@@H]1O[C@H](COP(=O)(O)OP(=O)(O)O)[C@@H](O)[C@H]1O` [ADP], the inhibition constant (Ki) in series [1] (setting [3]) was 200 to 9000 µM.

Take `CCCC(=O)[O-].[Na+]` [Sodium butyrate, reference compound]: in the series on HCT-8 cells (human), the “host cell” value is reported as “inhibit HCT-8 growth in a dose-dependent manner”. For the molecule `C[C@@H](Oc1cccc2ncccc12)c1cn(-c2ccc(Cl)cc2)nn1` [Compound 21, (R)-5-(1-(1-(4-chlorophenyl)-1H-1,2,3-triazol-4-yl)ethoxy)quinoline], the melting point was 94 to 96 °C. As to `O=C(Nc1ccc(Cl)cc1)C(Oc1cccc2ccccc12)C1CC1` (centres unmarked) [Compound 119, N-(4-chlorophenyl)-2-cyclopropyl-2-(1-naphthalenyloxy)acetamide], the melting point lay within 204 to 206 °C.

For the molecule `COc1cc(NC(=O)Nc2cccc(CNC(=O)O[C@H]3CCOC3)c2)ccc1-c1cnco1` [merimepodib], the “concentration inhibiting lymphocyte proliferation” value in series [2] was approximately 100 nM. Regarding `CC(Oc1ccnc2ccccc12)C(=O)Nc1ccc(Cl)cc1` (centres unmarked) [Compound 114, N-(4-chlorophenyl)-2-[[4-quinolinyl]oxy]propanamide], the melting point is 170 to 172 °C.

The values above are taken from patent US10125116B2, “Compounds and methods for treating mammalian gastrointestinal microbial infections” (Brandeis University, priority 2009, dated 2018).
